Drawing on ChEMBL document CHEMBL4376850, “1-Benzylpyrrolidine-3-amine-based BuChE inhibitors with anti-aggregating, antioxidant and metal-chelating properties as multifunctional agents against Alzheimer's disease” (Eur J Med Chem, 2020), this text covers IC50, inhibition and Activity for eight compounds.

Calls of active or inactive are those of the source. The calls are words filed in the database; no cut-off is given here.

For orientation: IC50 means the concentration that inhibits the measured activity by half. One may read the inhibition as the percentage by which the read-out fell short of the control.

For assay [1], the target named is Cholinesterase (Equus caballus, UniProt P81908).
Chain of Cholinesterase (P81908 whole entry): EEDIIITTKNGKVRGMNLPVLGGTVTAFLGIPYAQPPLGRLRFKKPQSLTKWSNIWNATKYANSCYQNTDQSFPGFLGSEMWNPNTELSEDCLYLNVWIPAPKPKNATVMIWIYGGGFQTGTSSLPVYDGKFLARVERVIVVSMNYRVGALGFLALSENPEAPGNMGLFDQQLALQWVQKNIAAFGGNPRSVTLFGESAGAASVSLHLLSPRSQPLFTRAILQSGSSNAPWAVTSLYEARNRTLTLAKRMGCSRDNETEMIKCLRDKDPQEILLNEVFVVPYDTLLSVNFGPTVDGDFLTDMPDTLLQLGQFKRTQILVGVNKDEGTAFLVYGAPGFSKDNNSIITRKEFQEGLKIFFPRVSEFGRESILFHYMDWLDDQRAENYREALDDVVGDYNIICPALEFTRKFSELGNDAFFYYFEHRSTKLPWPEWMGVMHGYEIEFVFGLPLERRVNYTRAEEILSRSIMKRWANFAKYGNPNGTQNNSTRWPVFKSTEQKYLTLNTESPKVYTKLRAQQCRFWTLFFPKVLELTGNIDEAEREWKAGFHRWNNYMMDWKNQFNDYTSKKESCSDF
Description: Inhibition of equine serum BuChE using butyrylthiocholine chloride as substrate pre-incubated for 5 mins followed by substrate addition and measured after 5 mins by Ellman's method
Assay [2] has as its target Amyloid-beta precursor protein (Homo sapiens) (UniProt P05067). Particulars: at 10 µM.
Description: Inhibition of amyloid beta (1 to 42) (unknown origin) aggregation at 10 uM expressed in Escherichia coli BL21 (DE3) incubated for 24 hrs by thioflavin T-based fluorometric assay relative to control
Assay [3] concerns the target Acetylcholinesterase (Electrophorus electricus) (UniProt O42275). In words: Inhibition of Electrophorus electricus AChE at 10 uM using acetylthiocholine iodide as substrate preincubated for 5 mins followed by substrate addition and measured after 5 mins by Ellman's method relative to control. Background: DTNB colorimetry detects thiols as they appear.
For assay [4], the target named is Microtubule-associated protein tau (Homo sapiens) (UniProt P10636). Description: Inhibition of tau aggregation (unknown origin) at 10 uM expressed in Escherichia coli BL21 (DE3) incubated for 24 hrs by thioflavin T-based fluorometric assay relative to control.
Chain of Microtubule-associated protein tau (Homo sapiens) (P10636 whole entry): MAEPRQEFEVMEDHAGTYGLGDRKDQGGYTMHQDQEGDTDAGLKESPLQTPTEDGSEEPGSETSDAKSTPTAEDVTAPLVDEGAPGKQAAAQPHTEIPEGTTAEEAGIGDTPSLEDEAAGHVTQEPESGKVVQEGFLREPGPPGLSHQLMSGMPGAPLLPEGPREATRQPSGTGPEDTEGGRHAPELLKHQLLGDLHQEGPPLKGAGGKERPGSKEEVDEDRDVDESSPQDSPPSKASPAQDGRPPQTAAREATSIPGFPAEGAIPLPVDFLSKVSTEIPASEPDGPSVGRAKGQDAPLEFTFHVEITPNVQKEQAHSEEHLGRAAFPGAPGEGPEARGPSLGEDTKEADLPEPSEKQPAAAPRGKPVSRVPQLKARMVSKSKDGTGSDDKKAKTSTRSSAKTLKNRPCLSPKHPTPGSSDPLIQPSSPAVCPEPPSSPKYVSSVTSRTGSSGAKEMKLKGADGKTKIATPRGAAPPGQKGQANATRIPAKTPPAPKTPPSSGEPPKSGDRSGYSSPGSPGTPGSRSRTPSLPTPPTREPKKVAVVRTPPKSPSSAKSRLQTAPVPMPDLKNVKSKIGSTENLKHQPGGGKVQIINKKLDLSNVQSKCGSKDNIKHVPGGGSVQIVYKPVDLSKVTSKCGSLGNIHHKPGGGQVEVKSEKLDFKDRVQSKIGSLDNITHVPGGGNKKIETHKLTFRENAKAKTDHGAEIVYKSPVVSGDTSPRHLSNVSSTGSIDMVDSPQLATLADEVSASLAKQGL
Assay [5] deals with Beta-secretase 1 (Homo sapiens, UniProt P56817). Particulars: 50 uM.
Chain of Beta-secretase 1 (P56817 whole entry): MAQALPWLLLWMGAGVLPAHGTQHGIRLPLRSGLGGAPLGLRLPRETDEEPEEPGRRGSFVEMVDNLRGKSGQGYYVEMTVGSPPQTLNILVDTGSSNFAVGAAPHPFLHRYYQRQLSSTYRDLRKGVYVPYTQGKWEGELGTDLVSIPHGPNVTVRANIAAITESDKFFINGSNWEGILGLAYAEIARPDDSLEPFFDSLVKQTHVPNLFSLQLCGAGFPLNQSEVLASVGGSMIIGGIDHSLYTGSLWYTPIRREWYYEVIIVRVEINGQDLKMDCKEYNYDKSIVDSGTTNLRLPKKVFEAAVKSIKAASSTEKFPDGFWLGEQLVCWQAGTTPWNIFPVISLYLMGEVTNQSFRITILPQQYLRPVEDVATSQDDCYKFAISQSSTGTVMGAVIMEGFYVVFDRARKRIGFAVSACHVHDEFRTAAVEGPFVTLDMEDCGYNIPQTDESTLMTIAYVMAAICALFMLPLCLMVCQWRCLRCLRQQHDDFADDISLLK
The nature of assay [6]: Antioxidant activity assessed as increase in total ferric ion reducing activity at 150 uM using FeCl3.H2O and TPTZ incubated for 60 mins by FRAP assay relative to control. Set-up: scale not given: the % may be the effect or the level left. The class given is functional.
Assay [7] is described as follows: Antioxidant activity assessed as increase in total ferric ion reducing activity at 75 uM using FeCl3.H2O and TPTZ incubated for 30 mins by FRAP assay relative to control. The class given is functional. More on the design: scale not given: the % may be the effect or the level left.
A short description of assay [8]: Antioxidant activity assessed as ABTS radical scavenging activity at 75 uM measured after 30 mins by spectrophotometric assay relative to control. Type of assay: functional.
Assay [9] in a line: Antioxidant activity assessed as increase in total ferric ion reducing activity at 150 uM using FeCl3.H2O and TPTZ incubated for 30 mins by FRAP assay relative to control. The class given is functional. Set-up: scale not given: the % may be the effect or the level left.
Assay [10] in a line: Antioxidant activity assessed as ABTS radical scavenging activity at 75 uM measured after 5 mins by spectrophotometric assay relative to control. The class given is functional.
Assay [11] can be described thus: Antioxidant activity assessed as increase in total ferric ion reducing activity at 30 uM using FeCl3.H2O and TPTZ incubated for 30 mins by FRAP assay relative to control. More on the design: scale not given: the % may be the effect or the level left. Type of assay: functional.
Assay [12] can be described thus: Antioxidant activity assessed as ABTS radical scavenging activity at 30 uM measured after 30 mins by spectrophotometric assay relative to control. The class given is functional.
Assay [13] is described as follows: Antioxidant activity assessed as increase in total ferric ion reducing activity at 75 uM using FeCl3.H2O and TPTZ incubated for 60 mins by FRAP assay relative to control. Type of assay: functional. Set-up: scale not given: the % may be the effect or the level left.
The nature of assay [14]: Antioxidant activity assessed as increase in total ferric ion reducing activity at 75 uM using FeCl3.H2O and TPTZ incubated for 5 mins by FRAP assay relative to control. The class given is functional. More on the design: scale not given: the % may be the effect or the level left.
Assay [15] is described as follows: Antioxidant activity assessed as ABTS radical scavenging activity at 150 uM measured after 60 mins by spectrophotometric assay relative to control. The class given is functional.
The nature of assay [16]: Antioxidant activity assessed as ABTS radical scavenging activity at 150 uM measured after 5 mins by spectrophotometric assay relative to control. Type of assay: functional.
Assay [17] can be described thus: Metal chelating activity assessed as Cu2+-compound complex formation at 50 uM after 30 mins by UV-Visible spectrophotometric method.
The nature of assay [18]: Antioxidant activity assessed as ABTS radical scavenging activity at 30 uM measured after 5 mins by spectrophotometric assay relative to control. The class given is functional.
The nature of assay [19]: Antioxidant activity assessed as increase in total ferric ion reducing activity at 30 uM using FeCl3.H2O and TPTZ incubated for 60 mins by FRAP assay relative to control. Type of assay: functional. More on the design: scale not given: the % may be the effect or the level left.
Assay [20] is described as follows: Antioxidant activity assessed as increase in total ferric ion reducing activity at 30 uM using FeCl3.H2O and TPTZ incubated for 5 mins by FRAP assay relative to control. The class given is functional. More on the design: scale not given: the % may be the effect or the level left.
Assay [21] is described as follows: Antioxidant activity assessed as ABTS radical scavenging activity at 150 uM measured after 30 mins by spectrophotometric assay relative to control. Type of assay: functional.
A short description of assay [22]: Antioxidant activity assessed as increase in total ferric ion reducing activity at 150 uM using FeCl3.H2O and TPTZ incubated for 5 mins by FRAP assay relative to control. Type of assay: functional. Set-up: scale not given: the % may be the effect or the level left.
Assay [23] is described as follows: Antioxidant activity assessed as ABTS radical scavenging activity at 30 uM measured after 60 mins by spectrophotometric assay relative to control. Type of assay: functional.
The nature of assay [24]: Antioxidant activity assessed as ABTS radical scavenging activity at 75 uM measured after 60 mins by spectrophotometric assay relative to control. Type of assay: functional.
The target of assay [25] is Cholinesterase (Equus caballus) (UniProt P81908). Description: Inhibition of equine serum BuChE at 10 uM using butyrylthiocholine chloride as substrate pre-incubated for 5 mins followed by substrate addition and measured after 5 mins by Ellman's method relative to control.
Chain of Cholinesterase (Equus caballus) (P81908 whole entry): as the sequence (P81908 whole entry) above
The target of assay [26] is Amyloid-beta precursor protein (Homo sapiens) (UniProt P05067). In words: Inhibition of HFIP-pretreated amyloid beta (1 to 42) (unknown origin) aggregation at 10 uM after 48 hrs measured every 3 mins by thioflavin T-based fluorometric assay relative to control.
Chain of Amyloid-beta precursor protein (Homo sapiens) (P05067 whole entry): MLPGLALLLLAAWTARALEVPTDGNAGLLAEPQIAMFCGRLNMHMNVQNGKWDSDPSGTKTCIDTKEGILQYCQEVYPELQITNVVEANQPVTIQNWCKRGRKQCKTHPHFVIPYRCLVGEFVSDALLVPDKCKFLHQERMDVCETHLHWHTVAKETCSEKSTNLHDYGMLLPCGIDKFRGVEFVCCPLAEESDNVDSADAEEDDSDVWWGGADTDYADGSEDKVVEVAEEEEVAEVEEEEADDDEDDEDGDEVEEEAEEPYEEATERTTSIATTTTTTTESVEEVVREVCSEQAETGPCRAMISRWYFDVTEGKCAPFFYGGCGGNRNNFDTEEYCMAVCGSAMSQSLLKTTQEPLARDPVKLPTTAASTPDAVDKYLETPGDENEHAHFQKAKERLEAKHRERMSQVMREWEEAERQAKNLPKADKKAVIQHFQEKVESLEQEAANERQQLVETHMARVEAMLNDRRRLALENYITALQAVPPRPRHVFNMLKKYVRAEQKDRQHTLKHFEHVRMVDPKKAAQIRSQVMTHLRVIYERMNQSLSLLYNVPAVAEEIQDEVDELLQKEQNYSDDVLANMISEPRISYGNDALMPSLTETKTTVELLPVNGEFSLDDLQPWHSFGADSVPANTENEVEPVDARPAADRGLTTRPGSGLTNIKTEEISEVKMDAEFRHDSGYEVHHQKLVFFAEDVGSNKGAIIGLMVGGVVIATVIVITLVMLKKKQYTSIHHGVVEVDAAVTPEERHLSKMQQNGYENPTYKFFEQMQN

Chain of Acetylcholinesterase (Electrophorus electricus) (O42275 24-633 limits assumed): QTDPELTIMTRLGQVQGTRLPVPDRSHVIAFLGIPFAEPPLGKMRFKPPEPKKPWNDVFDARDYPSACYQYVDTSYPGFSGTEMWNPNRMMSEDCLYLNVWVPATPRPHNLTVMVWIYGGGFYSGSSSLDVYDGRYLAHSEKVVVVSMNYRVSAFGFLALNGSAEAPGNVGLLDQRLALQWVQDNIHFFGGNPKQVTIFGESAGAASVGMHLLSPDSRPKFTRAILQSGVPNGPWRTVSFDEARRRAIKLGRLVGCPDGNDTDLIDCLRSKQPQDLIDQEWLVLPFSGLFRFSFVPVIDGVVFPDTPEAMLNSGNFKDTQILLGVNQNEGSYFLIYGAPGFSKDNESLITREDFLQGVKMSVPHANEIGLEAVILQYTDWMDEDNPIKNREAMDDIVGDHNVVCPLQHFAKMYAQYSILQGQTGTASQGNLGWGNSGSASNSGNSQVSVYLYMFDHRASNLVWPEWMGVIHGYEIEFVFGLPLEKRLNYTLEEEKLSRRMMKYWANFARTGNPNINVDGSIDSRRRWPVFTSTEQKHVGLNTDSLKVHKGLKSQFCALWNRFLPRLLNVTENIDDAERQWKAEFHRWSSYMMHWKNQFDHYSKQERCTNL

In turn, `O=C(CN1CCCC(Cc2ccccc2)C1)NC1CCN(Cc2ccccc2)C1` (stereo not given) showed an IC50 in [1] of 7000 nM. In addition, the inhibition in [2] is 45.1%; in assay [3], 27.6%; in assay [4], 54.2%; in assay [5] it was less than 10%.

`c1ccc(CC2CCN(CCNC3CCN(Cc4ccccc4)C3)CC2)cc1` (stereo not given): the Activity was determined as 22% in assay [6]; 11% in [7]; 21% in assay [8]; 20% in assay [9]; 11% in assay [10]; 2% in assay [11]. Moreover, the Activity in [12] is 12%; in [13] it was 13%; in assay [14], 6%; in [15], 55%; in assay [16], 21%; in [18], 9%. Moreover, the Activity in assay [19] was 3%; in assay [20], 1%; in assay [21], 43%; in assay [22], 13%; in assay [23], 17%; in assay [24] it was 27%. Moreover, in assay [1], the IC50 is 620 nM. Besides, the inhibition is 36.6% in assay [2], 21.2% in [3], 61% in [4] and less than 10% in assay [5]. For the same compound, the result in [17] was Active.

Consider `c1ccc(CN2CCC(NCCN3CCN(C(c4ccccc4)c4ccccc4)CC3)C2)cc1` (stereo not given), for which the Activity worked out at 25% in [6]; 10% in assay [7]; 52% in assay [8]; 21% in assay [9]; 29% in assay [10]; 8% in [11]. Further, the Activity is 41% in assay [12]; 12% in [13]; 4% in assay [14]; 84% in assay [15]; 51% in assay [16]; 22% in assay [18]. Besides, the Activity in [19] is 11%; in assay [20], 4%; in assay [21], 77%; in [22], 19%; in [23], 47%; in assay [24], 59%. Also, the inhibition in assay [25] came to 46.2%; in [2], 31.6%; in assay [3] it was 27.6%; in assay [4] it was 64%; in [26] it was 27.7%; in [5] it was 34.2%. In addition, the outcome in [17] was Active.

For the compound `c1ccc(CC2CCCN(CCNC3CCN(Cc4ccccc4)C3)C2)cc1` (stereo not given), the Activity in assay [6] came out at 35%; in [7], 28%; in assay [8], 40%; in assay [9], 32%; in assay [10] it was 18%; in [11], 10%. Also, the Activity in [12] was 14%; in assay [13] it was 30%; in [14], 24%; in assay [15], 94%; in assay [16], 49%; in assay [18] it was 21%. The Activity in assay [19] came to 10%; in [20] it was 7%; in assay [21], 80%; in [22] it was 30%; in assay [23], 5%; in [24] it was 53%. In addition, half-maximal inhibition in assay [1] (IC50) was put at 1940 nM. Besides, the values for the inhibition in assay [3] and in [5] were 29.9% and 24.1%, respectively. Besides, in assay [17], the outcome was Active.

On to `c1ccc(CN2CCC(NCCN3CCCC(c4ccccc4)C3)C2)cc1` (stereo not given), for which the Activity in [6] was 39%; in assay [7], 22%; in assay [8], 47%; in assay [9], 36%; in [10] it was 24%; in assay [11], 13%. The Activity was 27% in [12]; 25% in assay [13]; 15% in [14]; 96% in [15]; 54% in [16]; 14% in assay [18]. Besides, the Activity in [19] was determined as 15%; in [20] it was 11%; in [21] it was 85%; in assay [22] it was 34%; in assay [23], 38%; in assay [24] it was 59%. In [1], 2390 nM corresponded to half-maximal inhibition (IC50). The inhibition in assay [3] amounted to 40.8%; in assay [5] it was 25%. Further, the outcome in assay [17] was Active.

Regarding `c1ccc(CCC2CCCN(CCNC3CCN(Cc4ccccc4)C3)C2)cc1` (stereo not given), the Activity in assay [6] amounted to 11%; in assay [7], 3%; in [8] it was 26%; in assay [9], 9%; in assay [10], 12%; in assay [11] it was 6%. The Activity in assay [12] came to 18%; in assay [13], 4%; in assay [14] it was 2%; in [15], 76%; in assay [16], 33%; in [18], 12%. For the same compound, the Activity was 7% in assay [19]; 4% in [20]; 60% in [21]; 9% in assay [22]; 25% in assay [23]; 36% in assay [24]. This compound yielded an IC50 in [1] of 3260 nM. In addition, the inhibition is 41.3% in assay [2], 38.5% in assay [3], 57.2% in [4] and 42.6% in [5]. Further, the outcome in assay [17] was Active.

For `c1ccc(CCC2CCN(CCNC3CCN(Cc4ccccc4)C3)CC2)cc1` (stereo not given), the Activity in [6] was determined as 16%; in assay [7] it was 6%; in [8], 24%; in [9] it was 13%; in [10] it was 12%; in [11] it was 2%. The Activity in assay [12] was determined as 12%; in [13], 9%; in assay [14], 1%; in [15], 45%; in [16], 3%; in assay [18], 8%. The Activity was 3% in assay [19]; 2% in assay [20]; 29% in [21]; 11% in assay [22]; 18% in assay [23]; 33% in [24]. The same compound yielded an IC50 in assay [1] of 7390 nM. In addition, the inhibition is 41% in [2], less than 10% in assay [3], 67.8% in [4] and 31% in assay [5]. Further, the result in [17] was Active.

Regarding `O=C(CN1CCC(Cc2ccccc2)CC1)NC1CCN(Cc2ccccc2)C1` (stereo not given), the Activity in assay [6] amounted to 8%; in assay [7] it was 5%; in assay [8] it was 12%; in [9], 6%; in [10], 8%; in [11], 16%. Besides, the Activity in assay [12] worked out at 9%; in [13], 6%; in [14] it was 2%; in assay [15], 27%; in assay [16], 11%; in assay [18], 7%. Further, the Activity in [19] is 4%; in assay [20], 5%; in assay [21], 20%; in assay [22] it was 5%; in [23], 10%; in assay [24], 14%. The inhibition is 36.1% in assay [25]; 35% in assay [2]; less than 10% in assay [3]; 66.8% in [4]; 22.1% in assay [26]; 55.6% in [5].
